Data taken from patent US4605744A, “Imidazole derivatives” (Hoffmann-La Roche Inc., priority 1985, dated 1986).
Where a name gives a salt, the structure may show the parent alone.

Key:
Test in all cases: In vitro antibacterial activity (MIC)
Assay type in all cases: cell-based
C. diversus CDC 1663-72 = conditions: Citrobacter koseri, CDC166372; C. diversus CDC 1663-72; read-out: MIC
Summary of the method: (§1)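 Twofold-style dilution series (128 to 0.008 μg/ml) made in Mueller-Hinton broth, dispensed, then inoculated with 1.5 μl of a 10^-2 overnight-culture dilution. Plates sealed, held overnight at 37° C, inspected with a viewer.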

C. freundii 8ASM = conditions: Citrobacter freundii, 8ASM, C. freundii 8ASM; read-out: MIC
Summary of the method: as §1

C. freundii CDC6 = conditions: Citrobacter freundii, CDC6, C. freundii CDC6; read-out: MIC
Summary of the method: as §1

E. aerogenes 503-478 = conditions: Klebsiella aerogenes, 503478, E. aerogenes 503-478; read-out: MIC
Summary of the method: as §1

E. cloacae 214 = conditions: Enterobacter cloacae, 214, E. cloacae 214; read-out: MIC
Summary of the method: as §1

E. cloacae 5699 = conditions: Enterobacter cloacae, 5699, E. cloacae 5699; read-out: MIC
Summary of the method: as §1

E. cloacae 6951 = conditions: Enterobacter cloacae, 6951, E. cloacae 6951; read-out: MIC
Summary of the method: as §1

E. cloacae 9295 = conditions: Enterobacter cloacae, 9295, E. cloacae 9295; read-out: MIC
Summary of the method: as §1

E. cloacae 9570A = conditions: Enterobacter cloacae, read-out: MIC
Summary of the method: as §1

E. cloacae P99 = conditions: Enterobacter cloacae, P99, E. cloacae P99
Summary of the method: as §1

E. coli 48 = conditions: Escherichia coli, 48, E. coli 48; read-out: MIC
Summary of the method: as §1

E. coli 5152 = conditions: Escherichia coli, 5152, E. coli 5152; read-out: MIC
Summary of the method: as §1

E. coli R-563 = conditions: Escherichia coli, R563, E. coli R-563; read-out: MIC
Summary of the method: as §1

K. pneumoniae 35 = conditions: Klebsiella pneumoniae; K. pneumoniae 35; read-out: MIC
Summary of the method: as §1

K. pneumoniae 503-964 = conditions: Klebsiella pneumoniae, 503964; K. pneumoniae 503-964; read-out: MIC
Summary of the method: as §1

K. pneumoniae 503-994 = conditions: Klebsiella pneumoniae, 503994, K. pneumoniae 503-994; read-out: MIC
Summary of the method: as §1

K. pneumoniae 5096 = conditions: Klebsiella pneumoniae; K. pneumoniae 5096; read-out: MIC
Summary of the method: as §1

K. pneumoniae 8357 = conditions: Klebsiella pneumoniae, 8357, K. pneumoniae 8357; read-out: MIC
Summary of the method: as §1

K. pneumoniae HE7 = conditions: Klebsiella pneumoniae; K. pneumoniae HE7; read-out: MIC
Summary of the method: as §1

P. aeruginosa 503-56 = conditions: Pseudomonas aeruginosa, 50356, P. aeruginosa 503-56; read-out: MIC
Summary of the method: as §1

P. aeruginosa 5700 = conditions: Pseudomonas aeruginosa, 5700, P. aeruginosa 5700; read-out: MIC
Summary of the method: as §1

P. aeruginosa 5712 = conditions: Pseudomonas aeruginosa; P. aeruginosa 5712; read-out: MIC
Summary of the method: as §1

P. aeruginosa 6148B = conditions: Pseudomonas aeruginosa, read-out: MIC
Summary of the method: as §1

P. aeruginosa B = conditions: Pseudomonas aeruginosa, read-out: MIC
Summary of the method: as §1

P. aeruginosa POW 151 = conditions: Pseudomonas aeruginosa, POW151
Summary of the method: as §1

P. aeruginosa Stone 130 = conditions: Pseudomonas aeruginosa, STONE130, read-out: MIC
Summary of the method: as §1

P. mirabilis 2 = conditions: Proteus mirabilis, 2, P. mirabilis 2; read-out: MIC
Summary of the method: as §1

P. mirabilis 620A = conditions: Proteus mirabilis, 620A, P. mirabilis 620A; read-out: MIC
Summary of the method: as §1

P. rettgeri ATCC 9250 = conditions: Providencia rettgeri, ATCC9250, P. rettgeri ATCC 9250; read-out: MIC
Summary of the method: as §1

P. vulgaris 100 = conditions: Proteus vulgaris; P. vulgaris 100; read-out: MIC
Summary of the method: as §1

P. vulgaris ATCC 6380 = conditions: Proteus vulgaris, ATCC6380, P. vulgaris ATCC 6380; read-out: MIC
Summary of the method: as §1

S. aureus Giorgio = conditions: Staphylococcus aureus, S. aureus Giorgio; read-out: MIC
Summary of the method: as §1

S. aureus Smith = conditions: Staphylococcus aureus, S. aureus Smith; read-out: MIC
Summary of the method: as §1

S. faecalis C1 = conditions: Enterococcus faecalis; S. faecalis C1; read-out: MIC
Summary of the method: as §1

S. marcescens 5805 = conditions: Serratia marcescens, 5805, S. marcescens 5805; read-out: MIC
Summary of the method: as §1

S. marcescens S147 = conditions: Serratia marcescens; S. marcescens S147; read-out: MIC
Summary of the method: as §1

S. marcescens S2 = conditions: Serratia marcescens; S. marcescens S2; read-out: MIC
Summary of the method: as §1

S. marcescens S3 = conditions: Serratia marcescens; S. marcescens S3; read-out: MIC
Summary of the method: as §1

S. marcescens S5 = conditions: Serratia marcescens, S5, S. marcescens S5; read-out: MIC
Summary of the method: as §1

S. marcescens SM = conditions: Serratia marcescens, read-out: MIC
Summary of the method: as §1

S. pneumoniae 6301 = conditions: Streptococcus pneumoniae, 6301, S. pneumoniae 6301; read-out: MIC
Summary of the method: as §1

S. pneumoniae 6302 = conditions: Streptococcus pneumoniae, 6302, S. pneumoniae 6302; read-out: MIC
Summary of the method: as §1

S. pneumoniae SC = conditions: Streptococcus pneumoniae, read-out: MIC
Summary of the method: as §1

S. pyogenes 503-782 = conditions: Streptococcus pyogenes, 503782; S. pyogenes 503-782; read-out: MIC
Summary of the method: as §1

S. typhi P58A = conditions: Salmonella enterica, TYPHI
Summary of the method: as §1

For CC1(C)S[C@@H]2[C@H](N=CN3CCC(Cn4ccnc4CN)CC3)C(=O)N2[C@H]1C(=O)O [J, [2S-(2alpha,5alpha,6beta)]-6-[[[4-[[2-(aminomethyl)-1H-imidazol-1-yl]methyl]-1-piperidinyl]methylene]amino]-3,3-dimethyl-7-oxo-4-thia-1-azabicyclo[3.2.0]heptane-2-carboxylic acid hydrochloride], the MIC (C. diversus CDC 1663-72) was 0.031 µg/mL, the MIC (C. freundii 8ASM) was 0.125 µg/mL and the MIC (C. freundii CDC6) was 64 µg/mL. The MIC (E. aerogenes 503-478) was 8 µg/mL, the MIC (E. cloacae 214) was 1 µg/mL and the MIC (E. cloacae 5699) was 4 µg/mL. The MIC (E. cloacae 6951) was 16 µg/mL, the MIC (E. cloacae 9295) was 4 µg/mL and the MIC (E. cloacae 9570A) was 0.5 µg/mL. The MIC (E. cloacae P99) was 8 µg/mL, the MIC (E. coli 48) was 8 µg/mL and the MIC (E. coli 5152) was 16 µg/mL. It also gave an MIC (E. coli R-563) of 0.125 µg/mL, an MIC (K. pneumoniae 35) of 0.5 µg/mL and an MIC (K. pneumoniae 503-964) of 0.25 µg/mL. It also gave an MIC (K. pneumoniae 503-994) of 8 µg/mL, an MIC (K. pneumoniae 5096) of 128 µg/mL and an MIC (K. pneumoniae 8357) of 4 µg/mL. The MIC (K. pneumoniae HE7) was > 128 µg/mL, the MIC (P. aeruginosa 503-56) was 64 µg/mL and the MIC (P. aeruginosa 5700) was 0.5 µg/mL. The MIC (P. aeruginosa 5712) was > 128 µg/mL, the MIC (P. aeruginosa 6148B) was 128 µg/mL and the MIC (P. aeruginosa B) was 0.25 µg/mL. The MIC (P. aeruginosa POW 151) was > 128 µg/mL, the MIC (P. aeruginosa Stone 130) was > 128 µg/mL and the MIC (P. mirabilis 2) was 8 µg/mL. For the same compound, the MIC (P. mirabilis 620A) was > 128 µg/mL, the MIC (P. rettgeri ATCC 9250) was 16 µg/mL and the MIC (P. vulgaris 100) was 8 µg/mL. The MIC (P. vulgaris ATCC 6380) was 0.125 µg/mL, the MIC (S. aureus Giorgio) was 8 µg/mL and the MIC (S. aureus Smith) was 8 µg/mL. The MIC (S. faecalis C1) was 128 µg/mL, the MIC (S. marcescens 5805) was 1 µg/mL and the MIC (S. marcescens S147) was 0.25 µg/mL. It also gave an MIC (S. marcescens S2) of 0.25 µg/mL, an MIC (S. marcescens S3) of 0.25 µg/mL and an MIC (S. marcescens S5) of 0.5 µg/mL. The MIC (S. marcescens SM) was 0.5 µg/mL, the MIC (S. pneumoniae 6301) was 1 µg/mL and the MIC (S. pneumoniae 6302) was 4 µg/mL. For the same compound, the MIC (S. pneumoniae SC) was 4 µg/mL, the MIC (S. pyogenes 503-782) was 128 µg/mL and the MIC (S. typhi P58A) was 8 µg/mL.
Cc1nc(C)n(CCCC2CCN(C=N[C@@H]3C(=O)N4[C@@H]3SC(C)(C)[C@@H]4C(=O)O)CC2)c1C [E, [2S-(2alpha,5alpha,6beta)]-6[[4-[3-[(2,4,5-trimethyl-1H-imidazol-1-yl)propyl]-1-piperidinyl]methylene]amino]-3,3-dimethyl-7-oxo-4-thia-1-azabicyclo[3.2.0]heptane-2-carboxylic acid hydrate hydrochloride] was tested, and the MIC (C. diversus CDC 1663-72) was 0.062 µg/mL, the MIC (C. freundii 8ASM) was < 0.008 µg/mL and the MIC (C. freundii CDC6) was 0.125 µg/mL. For the same compound, the MIC (E. aerogenes 503-478) was 1 µg/mL, the MIC (E. cloacae 214) was 0.5 µg/mL and the MIC (E. cloacae 5699) was 0.125 µg/mL. It also gave an MIC (E. cloacae 6951) of 8 µg/mL, an MIC (E. cloacae 9295) of 0.25 µg/mL and an MIC (E. cloacae 9570A) of 0.125 µg/mL. It also gave an MIC (E. cloacae P99) of 0.125 µg/mL, an MIC (E. coli 48) of 0.062 µg/mL and an MIC (E. coli 5152) of 8 µg/mL. For the same compound, the MIC (E. coli R-563) was 4 µg/mL, the MIC (K. pneumoniae 35) was 0.125 µg/mL and the MIC (K. pneumoniae 503-964) was 0.062 µg/mL. For the same compound, the MIC (K. pneumoniae 503-994) was 0.062 µg/mL, the MIC (K. pneumoniae 5096) was > 128 µg/mL and the MIC (K. pneumoniae 8357) was 0.062 µg/mL. The MIC (K. pneumoniae HE7) was > 128 µg/mL, the MIC (P. aeruginosa 503-56) was > 128 µg/mL and the MIC (P. aeruginosa 5700) was > 128 µg/mL. The MIC (P. aeruginosa 5712) was > 128 µg/mL, the MIC (P. aeruginosa 6148B) was > 128 µg/mL and the MIC (P. aeruginosa B) was > 128 µg/mL. For the same compound, the MIC (P. aeruginosa POW 151) was > 128 µg/mL, the MIC (P. aeruginosa Stone 130) was > 128 µg/mL and the MIC (P. mirabilis 2) was 0.5 µg/mL. It also gave an MIC (P. mirabilis 620A) of 128 µg/mL, an MIC (P. rettgeri ATCC 9250) of 0.5 µg/mL and an MIC (P. vulgaris 100) of 8 µg/mL. For the same compound, the MIC (P. vulgaris ATCC 6380) was 0.062 µg/mL, the MIC (S. aureus Giorgio) was 8 µg/mL and the MIC (S. aureus Smith) was 8 µg/mL. For the same compound, the MIC (S. faecalis C1) was 128 µg/mL, the MIC (S. marcescens 5805) was 0.5 µg/mL and the MIC (S. marcescens S147) was 0.5 µg/mL. For the same compound, the MIC (S. marcescens S2) was 0.5 µg/mL, the MIC (S. marcescens S3) was 0.25 µg/mL and the MIC (S. marcescens S5) was 1 µg/mL. For the same compound, the MIC (S. marcescens SM) was 0.125 µg/mL, the MIC (S. pneumoniae 6301) was 1 µg/mL and the MIC (S. pneumoniae 6302) was 1 µg/mL. The MIC (S. pneumoniae SC) was 0.5 µg/mL, the MIC (S. pyogenes 503-782) was 128 µg/mL and the MIC (S. typhi P58A) was 0.062 µg/mL.
